One assay deals with HDAC1 (Homo sapiens, UniProt Q13547). In words: HDAC1 degradation by quantitative western blotting in HCT116 cells. The note with it: HCT116 cells; for HDAC1 degradation in initial screen (in words): 24 h, 0.1, 1 and 10 μM, compared with 1 at 10 μM. Background: Immunoblotting shows a protein as a band on a membrane.
Another assay concerns H3K56ac. In words: Histone H3 Lys 56 acetylation (H3K56ac) western blotting. The format is cell-based, human. The settings on record: HCT116 cells, 24 h, screen at 0.1, 1, 10 μM; relative to DMSO, CI-994 and 1 at 10 μM. The source says:
Supporting Information: Biology
Representative blots of two independent biological replicates.

The target in another assay is HDAC3 (Homo sapiens, UniProt O15379). In words: HDAC3 degradation by quantitative western blotting in HCT116 cells. The settings on record: HCT116 cells, 24 h, 0.1, 1 and 10 μM; compared with 1 at 10 μM.
Chain of HDAC3 (O15379 whole entry): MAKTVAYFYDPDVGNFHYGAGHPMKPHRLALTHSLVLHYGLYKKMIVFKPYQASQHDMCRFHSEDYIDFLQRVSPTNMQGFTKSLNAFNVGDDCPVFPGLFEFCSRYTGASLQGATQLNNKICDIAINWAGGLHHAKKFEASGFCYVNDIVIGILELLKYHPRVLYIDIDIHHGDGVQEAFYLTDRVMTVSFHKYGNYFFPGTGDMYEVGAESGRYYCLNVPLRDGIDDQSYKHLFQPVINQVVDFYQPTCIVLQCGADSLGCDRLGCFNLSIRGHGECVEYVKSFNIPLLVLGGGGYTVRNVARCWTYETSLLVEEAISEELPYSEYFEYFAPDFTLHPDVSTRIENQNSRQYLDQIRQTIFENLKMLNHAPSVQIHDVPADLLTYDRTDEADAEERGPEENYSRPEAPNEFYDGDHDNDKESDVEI
Chain of HDAC3 (Q9Y618 389-480 partner limits assumed): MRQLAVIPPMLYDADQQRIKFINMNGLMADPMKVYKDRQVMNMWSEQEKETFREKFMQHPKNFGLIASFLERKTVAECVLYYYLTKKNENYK
A further assay addresses HDAC2 (Homo sapiens, UniProt Q92769). In words: HDAC2 degradation by quantitative western blotting in HCT116 cells. The settings on record: HCT116 cells, 24 h, 0.1, 1 and 10 μM; compared with 1 at 10 μM.

Chain of HDAC1 (Q13547 whole entry): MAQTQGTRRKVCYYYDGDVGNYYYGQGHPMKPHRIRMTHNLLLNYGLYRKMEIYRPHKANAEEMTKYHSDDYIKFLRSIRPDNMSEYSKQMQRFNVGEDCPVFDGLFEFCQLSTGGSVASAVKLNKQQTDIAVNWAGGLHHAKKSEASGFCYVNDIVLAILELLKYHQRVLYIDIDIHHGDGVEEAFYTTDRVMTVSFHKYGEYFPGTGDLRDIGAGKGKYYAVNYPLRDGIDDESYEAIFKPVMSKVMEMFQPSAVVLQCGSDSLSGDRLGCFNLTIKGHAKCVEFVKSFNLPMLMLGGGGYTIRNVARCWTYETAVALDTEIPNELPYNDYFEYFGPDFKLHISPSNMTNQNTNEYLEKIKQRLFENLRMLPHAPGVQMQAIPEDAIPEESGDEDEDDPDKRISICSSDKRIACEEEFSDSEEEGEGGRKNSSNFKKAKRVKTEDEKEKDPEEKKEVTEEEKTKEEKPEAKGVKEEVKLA
Chain of HDAC2 (Q92769 whole entry): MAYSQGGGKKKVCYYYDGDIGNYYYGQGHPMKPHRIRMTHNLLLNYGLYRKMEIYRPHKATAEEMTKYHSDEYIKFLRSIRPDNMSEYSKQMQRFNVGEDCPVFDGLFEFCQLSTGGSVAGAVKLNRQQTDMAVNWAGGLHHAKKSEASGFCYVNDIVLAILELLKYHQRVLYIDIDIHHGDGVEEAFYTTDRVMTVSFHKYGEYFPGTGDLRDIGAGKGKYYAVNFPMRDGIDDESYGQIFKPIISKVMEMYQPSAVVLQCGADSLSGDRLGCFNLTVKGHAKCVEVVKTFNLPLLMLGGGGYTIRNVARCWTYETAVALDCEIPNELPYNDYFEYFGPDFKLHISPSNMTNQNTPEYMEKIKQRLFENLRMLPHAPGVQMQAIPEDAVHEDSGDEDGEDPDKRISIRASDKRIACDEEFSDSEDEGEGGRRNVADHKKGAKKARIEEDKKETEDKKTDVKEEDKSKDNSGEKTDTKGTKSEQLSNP
Protocol for HDAC1: (§1) Initially, each PROTAC was tested at 0.1, 1, and 10 μM in HCT116 cells for 24 h; then, cell extracts were prepared and evaluated for HDAC1/2 and 3 degradation by quantitative western blotting.
(§2) This cell line was incubated at 37 °C with 5% CO2.
(§3) HCT116 cells were seeded into 6-well plates (4 × 10^5 cells/well for 24 h, 2 × 10^5 cells/well for 48 h) for 24 h and then treated with DMSO or compounds at the indicated concentrations in fresh medium (5 mL total). After desired treatment time, the cells were harvested and then lysed in lysis buffer (50 mM Tris-HCl, 150 mM NaCl, 0.5% NP-40, 0.5% Triton X-100) supplemented with a protease inhibitor (Sigma, P8340). The suspension was incubated on ice for 30 min and centrifuged (18,000 rcf, 15 min, 4 °C); then, the supernatant was collected, and protein concentrations were quantified via Bradford Assay using Protein Assay Dye Reagent Concentrate (BIO-RAD). […] PageRuler Plus Prestained Ladder was used for size standards. After gel electrophoresis at 140 V for 90 min, the separated proteins were transferred onto a nitrocellulose membrane at 30 V for 60 min. The membranes were probed with primary antibodies (see the Supporting Information) for 60−90 min. Blots were developed with complimentary IRDye-conjugated secondary antibodies, and the bands were visualized using an Odyssey infrared imaging system. Image processing and band intensity quantification were performed using Image Studio Lite.
Protocol for HDAC2: as §1, §2, §3
Protocol for HDAC3: as §1, §2, §3

For `Cc1ncsc1-c1ccc(CNC(=O)[C@@H]2C[C@@H](O)CN2C(=O)[C@@H](NC(=O)COCCCCCCOCC(=O)Nc2ccc(C(=O)Nc3ccccc3N)cc2)C(C)(C)C)cc1` [Compound 8, (2S,4R)-1-((S)-2-(2-((6-(2-((4-((2-Aminophenyl)carbamoyl)-phenyl)amino)-2-oxoethoxy)hexyl)oxy)acetamido)-3,3-dimethylbutanoyl)-4-hydroxy-N-(4-(4-methylthiazol-5-yl)benzyl)pyrrolidine-2-carboxamide], on HDAC1, the “HDAC1 degradation in initial screen (in words)” value (from here on “HDAC1 degradation”) was “comparable to that of 1 but not maintained at 1 μM”. Also, the “H3K56ac levels (in words)” value in the assay on H3K56ac is “matched those of CI-994”. For the same compound, the “HDAC3 degradation in initial screen (in words)” value (“HDAC3 degradation” below) at HDAC3 was “loss of HDAC3 degradation compared to 6 and 7”.
Take `CC(=O)NC(C(=O)N1C[C@H](O)C[C@H]1C(=O)NCc1ccc(-c2scnc2C)cc1OCCCCNC(=O)CCCCC(=O)Nc1ccc(C(=O)Nc2ccccc2N)cc1)C(C)(C)C` (stereo in doubt) [Compound 23, N1-(4-(2-(((2S,4R)-1-((S)-2-Acetamido-3,3-dimethylbutanoyl)-4-hydroxypyrrolidine-2-carboxamido)methyl)-5-(4-methylthiazol-5-yl)phenoxy)butyl)-N6-(4-((2-aminophenyl)carbamoyl)phenyl)-adipamide]: the “HDAC1 degradation” value at HDAC1 is listed as “only modest degradation of HDAC1”. The “H3K56ac levels (in words)” value in the assay with H3K56ac is “did not increase H3K56ac levels greater than the DMSO control”.
Turning to `Cc1ncsc1-c1ccc(CNC(=O)[C@@H]2C[C@@H](O)CN2C(=O)[C@@H](NC(=O)COCCOCCOCC(=O)Nc2ccc(C(=O)Nc3cc(-c4cccs4)ccc3N)cc2)C(C)(C)C)cc1` [Compound 20, (2S,4R)-1-((S)-14-((4-((2-Amino-5-(thiophen-2-yl)phenyl)-carbamoyl)phenyl)amino)-2-(tert-butyl)-4,14-dioxo-6,9,12-trioxa-3-azatetradecanoyl)-4-hydroxy-N-(4-(4-methylthiazol-5-yl)benzyl)-pyrrolidine-2-carboxamide], on HDAC1, the “HDAC1 degradation” value is “did not result in enhanced degradation potency of HDAC1/2”. Besides, the DC50 (usually the concentration giving 50% degradation) at HDAC1 (read-out: DC50 HDAC1, 24 h, quantitative western blotting) was determined as 3.51 µM. Besides, the “H3K56ac levels (in words)” value with H3K56ac is recorded as “did increase H3K56ac to levels similar to 1”. Besides, the “HDAC2 degradation in initial screen (in words)” value (“HDAC2 degradation” for short) on HDAC2 is “did not result in enhanced degradation potency of HDAC1/2”.
As for `Cc1ncsc1-c1ccc(CNC(=O)[C@@H]2C[C@@H](O)CN2C(=O)[C@@H](NC(=O)CCCCCCCC(=O)Nc2ccc(C(=O)Nc3cc(-c4cccs4)ccc3N)cc2)C(C)(C)C)cc1` [Compound 18, N1-(4-((2-Amino-5-(thiophen-2-yl)phenyl)carbamoyl)phenyl)-N9-((S)-1-((2S,4R)-4-hydroxy-2-((4-(4-methylthiazol-5-yl)benzyl)-carbamoyl)pyrrolidin-1-yl)-3,3-dimethyl-1-oxobutan-2-yl)-nonanediamide], the “HDAC1 degradation” value on HDAC1 is listed as “did not result in enhanced degradation potency of HDAC1/2”. Further, the “HDAC2 degradation” value on HDAC2 was “did not result in enhanced degradation potency of HDAC1/2”.
For the compound `Cc1ncsc1-c1ccc(CNC(=O)[C@@H]2C[C@@H](O)CN2C(=O)[C@@H](NC(=O)CCCCCCCCCC(=O)Nc2ccc(C(=O)Nc3ccccc3N)cc2)C(C)(C)C)cc1` [Compound 4, N1-(4-((2-Aminophenyl)carbamoyl)phenyl)-N11-((S)-1-((2S,4R)-4-hydroxy-2-((4-(4-methylthiazol5-yl)benzyl)carbamoyl)pyrrolidin-1-yl)-3,3-dimethyl-1-oxobutan-2-yl)undecanediamide], the “HDAC1 degradation” value at HDAC1 is on record as “directly comparable to those of the 12-atom linker 1”. The “H3K56ac levels (in words)” value with H3K56ac is reported as “increased H3K56ac levels to the same degree as the 12-atom linker 1”.
As to `Cc1ncsc1-c1ccc(CNC(=O)[C@@H]2C[C@@H](O)CN2C(=O)C(NC(=O)CCCCCCCCCCC(=O)Nc2ccc(C(=O)Nc3ccc(F)cc3N)cc2)C(C)(C)C)cc1` (stereo in doubt) [Compound 15, N1-(4-((2-Amino-4-fluorophenyl)carbamoyl)phenyl)-N12-((S)-1-((2S,4R)-4-hydroxy-2-((4-(4-methylthiazol-5-yl)benzyl)carbamoyl)-pyrrolidin-1-yl)-3,3-dimethyl-1-oxobutan-2-yl)dodecanediamide], the “HDAC3 degradation” value at HDAC3 is given as “enhanced HDAC3 degradation compared to 1”.
Consider “(2S,4R)-1-((S)-2-(2-((9-((4-((2-Aminophenyl)carbamoyl)phenyl)-amino)-9-oxononyl)oxy)acetamido)-3,3-dimethylbutanoyl)-4-hydroxy-N-(4-(4-methylthiazol-5-yl)benzyl)pyrrolidine-2-carboxamide [Compound 6]”, for which the “H3K56ac levels (in words)” value with H3K56ac is “increased H3K56ac to comparable or greater levels than CI-994 and 1”. Also, the “HDAC3 degradation” value on HDAC3 is reported as “significantly enhanced compared to that of 1”.
As to `CC(=O)NC(C(=O)N1C[C@H](O)C[C@H]1C(=O)NCc1ccc(-c2scnc2C)cc1OCCCCNC(=O)CCCCCCCC(=O)Nc1ccc(C(=O)Nc2ccccc2N)cc1)C(C)(C)C` (stereo in doubt) [Compound 24, N1-(4-(2-(((2S,4R)-1-((S)-2-Acetamido-3,3-dimethylbutanoyl)-4-hydroxypyrrolidine-2-carboxamido)methyl)-5-(4-methylthiazol-5-yl)-phenoxy)butyl)-N9-(4-((2-aminophenyl)carbamoyl)phenyl)-nonanediamide], the “HDAC1 degradation” value at HDAC1 was “only modest degradation of HDAC1”. The “H3K56ac levels (in words)” value with H3K56ac is given as “did not increase H3K56ac levels greater than the DMSO control”.
As to `Cc1ncsc1-c1ccc(CNC(=O)[C@@H]2C[C@@H](O)CN2C(=O)C(NC(=O)COCCOCCOCC(=O)Nc2ccc(C(=O)Nc3ccc(F)cc3N)cc2)C(C)(C)C)cc1` (stereo in doubt) [Compound 16, (2S,4R)-1-((S)-14-((4-((2-Amino-4-fluorophenyl)carbamoyl)-phenyl)amino)-2-(tert-butyl)-4,14-dioxo-6,9,12-trioxa-3-azatetradecanoyl)-4-hydroxy-N-(4-(4-methylthiazol-5-yl)benzyl)-pyrrolidine-2-carboxamide], the “HDAC3 degradation” value at HDAC3 is reported as “only modest HDAC3 degradation at 10 μM”.
As for `Cc1ncsc1-c1ccc(CNC(=O)[C@@H]2C[C@@H](O)CN2C(=O)[C@@H](NC(=O)CCCCCCCCCCC(=O)Nc2ccc(C(=O)Nc3cc(-c4cccs4)ccc3N)cc2)C(C)(C)C)cc1` [Compound 19, N1-(4-((2-Amino-5-(thiophen-2-yl)phenyl)carbamoyl)phenyl)-N12-((S)-1-((2S,4R)-4-hydroxy-2-((4-(4-methylthiazol-5-yl)benzyl)-carbamoyl)pyrrolidin-1-yl)-3,3-dimethyl-1-oxobutan-2-yl)-dodecanediamide], the “HDAC1 degradation” value on HDAC1 is given as “did not result in enhanced degradation potency of HDAC1/2”. Moreover, the “HDAC2 degradation” value on HDAC2 was “did not result in enhanced degradation potency of HDAC1/2”.

The values are drawn from publication PMC9014412 (Journal of medicinal chemistry, 2022).
